What was measured:
[1] = target: T1, E6 WT/E6AP (Human papillomavirus type 16, UniProt P03126); experiment: biochemical; assay type: binding; conditions: WT 16E6; for inhibition at 10 µM: 10 μM compound; for inhibition at 100 µM: 100 μM compound
[2] = target: E6C51S/E6AP (Human papillomavirus type 16, UniProt P03126, C58S); experiment: E6/E6AP binding assay (amylose-bound MBP-16E6, E6AP-BAP activity), C51S 16E6; design: species or system HPV-16; conditions: for % Inhibition @ 10 μM E6C51S/E6AP: 10 μM compound; for % Inhibition @ 100 μM E6C51S/E6AP: 100 μM compound
[3] = target: T1, E6 WT/E6AP; experiment: biochemical; assay type: binding; conditions: for Emax: 24 h, read-out: FP maximal inhibition (max %) E6 WT/E6AP; for IC50: FP IC50 at 24 h (μM) E6 WT/E6AP

E6C51S/E6AP, sequence (P03126 whole entry C58S, looked up): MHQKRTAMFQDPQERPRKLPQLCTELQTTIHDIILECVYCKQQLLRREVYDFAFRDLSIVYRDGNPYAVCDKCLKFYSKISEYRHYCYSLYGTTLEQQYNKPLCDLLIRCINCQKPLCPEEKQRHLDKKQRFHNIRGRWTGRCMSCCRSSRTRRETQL
T1 sequence (P03126 8-158): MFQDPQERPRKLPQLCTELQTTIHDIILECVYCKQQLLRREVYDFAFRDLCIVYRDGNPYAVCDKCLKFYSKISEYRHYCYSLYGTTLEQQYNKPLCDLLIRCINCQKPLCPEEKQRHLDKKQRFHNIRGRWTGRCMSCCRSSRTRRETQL

Structure (SMILES)	inhibition at 10 µM [1] [%]	inhibition at 100 µM [1] [%]	% Inhibition @ 10 μM E6C51S/E6AP [2] [%]	% Inhibition @ 100 μM E6C51S/E6AP [2] [%]	FP maximal inhibition (max %) E6 WT/E6AP ([3]; at 24 h)	Emax [3] [%]	IC50 [3] [µM]
Cc1ccccc1C1c2ccsc2CCN1C(C)C(=O)N1CCCN(C(=O)CCl)CC1 (centres unmarked) [EIN-117, 1-(4-(2-chloroacetyl)-1,4-diazepan-1-yl)-2-(4-(o-tolyl)-6,7-dihydrothieno[3,2-c]pyridin-5(4H)-yl)propan-1-one]	17 ± 1	33 ± 7					
Cc1ccccc1C1c2ccsc2CCN1CC(=O)N1CCN(C(=O)CCl)C(C)C1 (centres unmarked) [EIN-118, 2-chloro-1-(2-methyl-4-(2-(4-(o-tolyl)-6,7-dihydrothieno[3,2-c]pyridin-5(4H)-yl)acetyl)piperazin-1-yl)ethan-1-one]	49 ± 5	98 ± 2	12 ± 11	79 ± 5			
O=C(CCl)N1CCCN(C(=O)CN2CCc3sccc3C2c2cccc(F)c2)CC1 (centres unmarked) [EIN-119, 2-chloro-1-(4-(2-(4-(3-fluorophenyl)-6,7-dihydrothieno[3,2-c]pyridin-5(4H)-yl)acetyl)-1,4-diazepan-1-yl)ethan-1-one]	33 ± 6	61 ± 1	9 ± 7	34 ± 7			
CC1CN(C(=O)CN2CCc3sccc3C2c2cccc(F)c2)CCN1C(=O)CCl (centres unmarked) [EIN-120, 2-chloro-1-(4-(2-(4-(3-fluorophenyl)-6,7-dihydrothieno[3,2-c]pyridin-5(4H)-yl)acetyl)-2-methylpiperazin-1-yl)ethan-1-one]	18 ± 5	63 ± 1	12 ± 5	34 ± 2			
COc1ccc(C2c3ccsc3CCN2CC(=O)N2CCN(C(=O)CCl)C(C)C2)cc1 (centres unmarked) [EIN-121, 2-chloro-1-(4-(2-(4-(4-methoxyphenyl)-6,7-dihydrothieno[3,2-c]pyridin-5(4H)-yl)acetyl)-2-methylpiperazin-1-yl)ethan-1-one]	24 ± 2	52 ± 1					
Cc1nc(N2CCN(C(=O)CCl)CC2)c2c3c(sc2n1)CCCC3 [EIN-123, 2-chloro-1-(4-(2-methyl-5,6,7,8-tetrahydrobenzo[4,5]thieno[2,3-d]pyrimidin-4-yl)piperazin-1-yl)ethan-1-one]	58 ± 12	114 ± 11	44 ± 10	90 ± 6			
CCCCc1nc(N2CCN(C(=O)CCl)CC2)c2c3c(sc2n1)CC(C)CC3 (centres unmarked) [EIN-124, 1-(4-(2-butyl-7-methyl-5,6,7,8-tetrahydrobenzo[4,5]thieno[2,3-d]pyrimidin-4-yl)piperazin-1-yl)-2-chloroethan-1-one]	71 ± 13	113 ± 13	49 ± 11	90 ± 5			
CCCCc1nc(N2CCN(C(=O)CCl)CC2)c2c3c(sc2n1)CCCC3 [EIN-126, 1-(4-(2-butyl-5,6,7,8-tetrahydrobenzo[4,5]thieno[2,3-d]pyrimidin-4-yl)piperazin-1-yl)-2-chloroethan-1-one]	18 ± 5	63 ± 1	12 ± 5	34 ± 2			
O=C(CCl)N1CCN(c2nc(Cc3ccccc3)nc3sc4c(c23)CCCC4)CC1 [EIN-127, 1-(4-(2-benzyl-5,6,7,8-tetrahydrobenzo[4,5]thieno[2,3-d]pyrimidin-4-yl)piperazin-1-yl)-2-chloroethan-1-one]	57 ± 14	106 ± 11	41 ± 5	79 ± 4			
Cc1sc2nc(CCc3ccccc3)nc(N3CCN(C(=O)CCl)CC3)c2c1C [EIN-128, 2-chloro-1-(4-(5,6-dimethyl-2-phenethylthieno[2,3-d]pyrimidin-4-yl)piperazin-1-yl)ethan-1-one]	47 ± 14	106 ± 11	19 ± 8	60 ± 3			
Cc1sc2nc(C3CC3)nc(N3CCN(C(=O)CCl)CC3)c2c1C [EIN-129, 2-chloro-1-(4-(2-cyclopropyl-5,6-dimethylthieno[2,3-d]pyrimidin-4-yl)piperazin-1-yl)ethan-1-one]	81 ± 16	119 ± 13	57 ± 12	103 ± 5			
CCCc1nc(N2CCN(C(=O)CCl)CC2)c2c3c(sc2n1)CC(C)CC3 (centres unmarked) [EIN-130, 2-chloro-1-(4-(7-methyl-2-propyl-5,6,7,8-tetrahydrobenzo[4,5]thieno[2,3-d]pyrimidin-4-yl)piperazin-1-yl)ethan-1-one]	46 ± 9	100 ± 9	52 ± 12	85 ± 6			
CCc1nc(N2CCN(C(=O)CCl)CC2)c2c3c(sc2n1)CCCC3 [EIN-131, 2-chloro-1-(4-(2-ethyl-5,6,7,8-tetrahydrobenzo[4,5]thieno[2,3-d]pyrimidin-4-yl)piperazin-1-yl)ethan-1-one]	24 ± 3	65 ± 3					
C=CC(=O)N1CCN(c2nc(N(C)Cc3ccccc3F)nc3sc4c(c23)CCCC4)CC1 [EIN-140, 1-(4-(2-((2-fluorobenzyl)(methyl)amino)-5,6,7,8-tetrahydrobenzo[4,5]thieno[2,3-d]pyrimidin-4-yl)piperazin-1-yl)prop-2-en-1-one]	6 ± 6	17 ± 4	0	0			
C=CC(=O)N1CCN(c2nc(N(C)Cc3cccc(F)c3)nc3sc4c(c23)CCCC4)CC1 [EIN-141, 1-(4-(2-((3-fluorobenzyl)(methyl)amino)-5,6,7,8-tetrahydrobenzo[4,5]thieno[2,3-d]pyrimidin-4-yl)piperazin-1-yl)prop-2-en-1-one]	0	18 ± 5	0	0			
C=CC(=O)N1CCN(c2nc(N(C)Cc3ccc(F)cc3)nc3sc4c(c23)CCCC4)CC1 [EIN-142, 1-(4-(2-((4-fluorobenzyl)(methyl)amino)-5,6,7,8-tetrahydrobenzo[4,5]thieno[2,3-d]pyrimidin-4-yl)piperazin-1-yl)prop-2-en-1-one]	17 ± 4	28 ± 3	0	0			
C=CC(=O)N1CCN(c2nc(CCc3cccc(OC)c3)nc3sc4c(c23)CCCC4)CC1 [EIN-151, 1-(4-(2-(3-methoxyphenethyl)-5,6,7,8-tetrahydrobenzo[4,5]thieno[2,3-d]pyrimidin-4-yl)piperazin-1-yl)prop-2-en-1-one]					(max 71%)		
C=CC(=O)N1CCN(c2nc(CCc3ccc(F)cc3)nc3ccccc23)CC1 [EIN-153, 1-(4-(2-(4-fluorophenethyl)quinazolin-4-yl)piperazin-1-yl)prop-2-en-1-one]						100	27.7 ± 1.3
C=CC(=O)N1CCN(c2nc(CCc3cccc(F)c3)nc3ccccc23)CC1 [EIN-158, 1-(4-(2-(3-fluorophenethyl)quinazolin-4-yl)piperazin-1-yl)prop-2-en-1-one]						100	52.8 ± 2.8
C=CC(=O)N1CCN(c2nc(-c3cccc(OC)c3)nc3ccccc23)CC1 [EIN-159, 1-(4-(2-(3-methoxyphenyl)quinazolin-4-yl)piperazin-1-yl)prop-2-en-1-one]						91	14.5 ± 1.3
